The results in this text go back to US20220281821A1, “INDAZOLE COMPOUNDS AND THEIR PHARMACEUTICAL COMPOSITIONS” (Jinan University, priority 2019, published 2022).

For assay [1], the target named is T1, BaF3-ETV6-NTRK3 (Homo sapiens, UniProt Q16288).
T1 construct: fused on or other part: P41212 (Transcription factor ETV6)
The assay is described as follows: Cell proliferation inhibition (CCK-8), BaF3-ETV6-NTRK3 stable strain. Type of assay: cell-based, mouse. Particulars: BaF3-ETV6-NTRK3, 72 hours. In a few lines: (§1)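 Ba/F3 cells stably electroporated with ETV6-NTRK3, CD74-NTRK1 or ETV6-NTRK2, selected with G418 and grown without IL3, then cloned by limiting dilution.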

For assay [2], the target named is T2, TRKC (Homo sapiens, UniProt Q16288).
T2 construct: purchased life technologies PV3617
T2 sequence (Q16288 32-839): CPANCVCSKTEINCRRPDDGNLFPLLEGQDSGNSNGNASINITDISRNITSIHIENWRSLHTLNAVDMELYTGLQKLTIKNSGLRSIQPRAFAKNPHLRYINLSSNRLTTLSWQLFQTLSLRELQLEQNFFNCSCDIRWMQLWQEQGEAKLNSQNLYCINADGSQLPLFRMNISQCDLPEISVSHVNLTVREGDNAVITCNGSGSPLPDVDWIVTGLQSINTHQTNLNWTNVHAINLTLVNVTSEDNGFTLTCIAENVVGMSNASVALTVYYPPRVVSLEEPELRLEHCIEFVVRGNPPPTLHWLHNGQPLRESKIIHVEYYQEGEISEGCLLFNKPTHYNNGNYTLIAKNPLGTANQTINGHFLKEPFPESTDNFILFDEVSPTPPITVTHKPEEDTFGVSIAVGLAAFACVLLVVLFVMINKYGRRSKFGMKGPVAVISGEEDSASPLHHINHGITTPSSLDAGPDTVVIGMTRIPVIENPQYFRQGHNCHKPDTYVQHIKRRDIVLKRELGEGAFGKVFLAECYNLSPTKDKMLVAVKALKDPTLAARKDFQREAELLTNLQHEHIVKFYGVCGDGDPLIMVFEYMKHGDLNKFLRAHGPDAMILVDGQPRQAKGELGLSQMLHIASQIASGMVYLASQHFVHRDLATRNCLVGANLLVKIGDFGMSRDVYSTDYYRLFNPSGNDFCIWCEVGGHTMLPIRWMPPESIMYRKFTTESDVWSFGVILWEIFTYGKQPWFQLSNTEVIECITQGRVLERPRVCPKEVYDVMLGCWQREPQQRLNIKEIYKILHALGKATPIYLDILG
The assay is described as follows: Z′-LYTE kinase activity assay, TRKC. Particulars: ATP 50 uM. Type of assay: biochemical. Put shortly: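 Recombinant TRK kinase tested in a Z′-LYTE FRET assay with 2 μM Tyr 01 peptide substrate in 50 mM HEPES pH 7.5, 10 mM MgCl2, 1 mM EGTA, 0.01% BRIJ-35. IC50 obtained by curve fitting.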

The target in assay [3] is T3, TRKB (Homo sapiens, UniProt Q16620).
T3 construct: purchased life technologies PV3616
T3 sequence (Q16620 32-822): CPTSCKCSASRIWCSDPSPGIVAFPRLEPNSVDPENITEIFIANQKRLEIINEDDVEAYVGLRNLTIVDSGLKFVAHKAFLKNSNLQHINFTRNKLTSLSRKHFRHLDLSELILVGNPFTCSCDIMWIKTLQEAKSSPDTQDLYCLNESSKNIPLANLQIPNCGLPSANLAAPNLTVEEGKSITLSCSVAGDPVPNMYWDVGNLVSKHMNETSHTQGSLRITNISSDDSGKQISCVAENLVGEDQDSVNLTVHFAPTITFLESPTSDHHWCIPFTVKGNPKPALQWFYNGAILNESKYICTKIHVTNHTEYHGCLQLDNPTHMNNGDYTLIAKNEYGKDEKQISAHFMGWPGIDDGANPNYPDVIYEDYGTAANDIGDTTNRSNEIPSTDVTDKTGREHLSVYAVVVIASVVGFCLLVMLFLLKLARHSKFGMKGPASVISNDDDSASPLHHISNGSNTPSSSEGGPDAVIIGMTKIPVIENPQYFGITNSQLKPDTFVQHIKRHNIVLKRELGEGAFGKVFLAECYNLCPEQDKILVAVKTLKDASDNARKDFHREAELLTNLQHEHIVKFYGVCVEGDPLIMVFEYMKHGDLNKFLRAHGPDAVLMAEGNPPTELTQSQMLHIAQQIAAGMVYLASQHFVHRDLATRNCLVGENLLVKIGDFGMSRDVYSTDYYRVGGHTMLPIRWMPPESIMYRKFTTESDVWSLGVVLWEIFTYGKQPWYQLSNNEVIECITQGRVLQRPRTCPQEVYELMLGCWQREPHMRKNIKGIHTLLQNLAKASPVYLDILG
The assay is described as follows: Z′-LYTE kinase activity assay, TRKB. Type of assay: biochemical. Particulars: ATP 25 uM. In a few lines: (§2)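 Z′-LYTE FRET assay using Tyr 01 peptide substrate (2 μM) in 50 mM HEPES pH 7.5 with 10 mM MgCl2, 1 mM EGTA and 0.01% BRIJ-35. Inhibition was derived from the phosphorylation ratio versus negative control, with IC50 from concentration gradients.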

Assay [4] concerns the target T4, BaF3-CD74-NTRK1 (Homo sapiens, UniProt P04629).
T4 construct: fused on or other part: P04233 (HLA class II histocompatibility antigen gamma chain)
Put plainly: Cell proliferation inhibition (CCK-8), BaF3-CD74-NTRK1 stable strain. Type of assay: cell-based, mouse. Particulars: BaF3-CD74-NTRK1, 72 hours. In a few lines:
as §1

Assay [5] addresses T5, TRKA (Homo sapiens, UniProt P04629).
T5 construct: purchased life technologies PV3144
Put plainly: Z′-LYTE kinase activity assay, TRKA. Type of assay: biochemical. Particulars: ATP 400 uM. Put shortly: as §2

For assay [6], the target named is T6, BaF3-ETV6-NTRK2 (Homo sapiens, UniProt Q16620).
T6 construct: fused on or other part: P41212 (Transcription factor ETV6)
T6 sequence (Q16620 538-822 limits assumed): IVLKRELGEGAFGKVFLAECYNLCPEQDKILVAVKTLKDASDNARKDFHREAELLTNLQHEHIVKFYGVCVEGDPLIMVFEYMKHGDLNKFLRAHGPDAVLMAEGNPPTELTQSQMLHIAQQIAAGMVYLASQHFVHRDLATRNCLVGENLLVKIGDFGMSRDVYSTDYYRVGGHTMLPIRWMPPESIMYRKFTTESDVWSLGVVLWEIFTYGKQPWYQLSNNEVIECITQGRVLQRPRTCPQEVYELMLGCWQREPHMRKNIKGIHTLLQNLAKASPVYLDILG
Put plainly: Cell proliferation inhibition (CCK-8), BaF3-ETV6-NTRK2 stable strain. Type of assay: cell-based, mouse. Particulars: BaF3-ETV6-NTRK2, 72 hours. Put shortly: as §1

Structures are written as SMILES. A value given as a limit tells only on which side of the number the result lay.

T4 sequence (P04629 510-796 limits assumed): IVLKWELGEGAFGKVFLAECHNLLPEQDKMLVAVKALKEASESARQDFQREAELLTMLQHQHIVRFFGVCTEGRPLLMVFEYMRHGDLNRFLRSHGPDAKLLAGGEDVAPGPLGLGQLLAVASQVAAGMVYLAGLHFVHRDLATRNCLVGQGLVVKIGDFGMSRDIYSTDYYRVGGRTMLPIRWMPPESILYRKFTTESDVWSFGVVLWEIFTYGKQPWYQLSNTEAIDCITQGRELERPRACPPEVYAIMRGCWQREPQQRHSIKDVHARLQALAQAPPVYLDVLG
T5 sequence (P04629 440-796 limits assumed): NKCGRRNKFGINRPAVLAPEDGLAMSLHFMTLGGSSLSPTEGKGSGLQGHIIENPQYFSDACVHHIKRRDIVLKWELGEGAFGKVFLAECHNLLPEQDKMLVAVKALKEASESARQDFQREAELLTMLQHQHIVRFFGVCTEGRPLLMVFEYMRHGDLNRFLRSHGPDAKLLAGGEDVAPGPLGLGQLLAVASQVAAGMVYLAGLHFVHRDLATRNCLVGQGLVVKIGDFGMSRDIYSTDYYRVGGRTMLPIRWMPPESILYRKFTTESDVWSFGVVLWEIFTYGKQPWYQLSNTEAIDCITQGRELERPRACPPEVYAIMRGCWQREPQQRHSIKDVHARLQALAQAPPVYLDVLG
T1 sequence (Q16288 whole entry, the tested form may be a part): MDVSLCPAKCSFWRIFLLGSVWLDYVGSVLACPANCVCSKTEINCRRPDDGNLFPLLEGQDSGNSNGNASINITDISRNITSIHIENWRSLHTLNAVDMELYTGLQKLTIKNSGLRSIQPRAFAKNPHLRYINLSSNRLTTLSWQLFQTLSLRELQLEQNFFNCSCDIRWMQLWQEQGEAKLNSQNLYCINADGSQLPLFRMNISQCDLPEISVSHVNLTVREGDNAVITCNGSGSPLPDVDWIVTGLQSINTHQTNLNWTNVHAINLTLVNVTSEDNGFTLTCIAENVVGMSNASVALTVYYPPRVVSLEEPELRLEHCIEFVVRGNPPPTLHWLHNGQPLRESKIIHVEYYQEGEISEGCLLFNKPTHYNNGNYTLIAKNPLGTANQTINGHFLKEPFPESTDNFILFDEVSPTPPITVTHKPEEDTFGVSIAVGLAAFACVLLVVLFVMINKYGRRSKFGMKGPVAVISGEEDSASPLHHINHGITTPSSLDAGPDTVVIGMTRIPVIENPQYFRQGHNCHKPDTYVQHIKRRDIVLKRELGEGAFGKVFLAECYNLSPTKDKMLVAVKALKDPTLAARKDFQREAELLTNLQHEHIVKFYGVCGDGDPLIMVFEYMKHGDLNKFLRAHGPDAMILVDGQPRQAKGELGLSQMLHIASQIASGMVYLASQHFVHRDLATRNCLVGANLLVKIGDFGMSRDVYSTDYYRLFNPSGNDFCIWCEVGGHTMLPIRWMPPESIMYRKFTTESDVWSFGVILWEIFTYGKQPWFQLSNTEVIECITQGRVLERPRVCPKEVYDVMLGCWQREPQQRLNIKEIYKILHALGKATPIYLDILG

The IC50 is the point on the concentration scale where inhibition reaches its midpoint. Higher therefore signals lower potency. Regarding `Fc1cc(F)cc(-c2ccc3[nH]nc(C#Cc4ccccn4)c3c2)c1` [DYX-115, 5-(3,5-difluorophenyl)-3-(pyridin-2-ylethynyl)-1H-indazole], the IC50 is over 10000 nM in assay [1]; over 1000 nM in assay [2]; over 1000 nM in assay [3]; over 10000 nM in assay [4]; over 1000 nM in assay [5]; over 10000 nM in assay [6].

Consider `C[C@@H](Nc1ccc2[nH]nc(/C=C/C(=O)N3CC[C@H](O)C3)c2c1)c1cc(F)cc(F)c1` [DYX-303, (E)-3-(5-(((R)-1-(3,5-difluorophenyl)ethyl)amino)-1H-indazol-3-yl)-1-((S)-3-hydroxylpyrrolidin-1-yl)prop-2-en-1-one], for which the IC50 in assay [1] turned out to be 7.1 nM; in assay [2], 0.8 nM; in assay [3] it was 4.8 nM; in assay [4], 10.1 nM; in assay [5], 3 nM; in assay [6], 20 nM.

As for `Cc1cccc(Cc2ccc3[nH]nc(/C=C/c4ccccn4)c3c2)c1` [DYX-137X, (E)-5-(3-methylbenzyl)-3-(2-(pyridin-2-yl)vinyl)-1H-indazole], the IC50 in assay [1] turned out to be 3180 nM; in assay [2], 21.9 nM; in assay [3] it was 80.8 nM; in assay [4], 2420 nM; in assay [5] it was 33.8 nM; in assay [6] it was 3720 nM.

For the compound `O=S(=O)(c1cc(F)cc(F)c1)c1cc2c(/C=C/c3ccccn3)n[nH]c2cn1` [DYX-149, (E)-5-((3,5-difluorophenyl)sulfonyl)-3-(2-(pyridin-2-yl)vinyl)-1H-pyrazolo[3,4-c]pyridine], the IC50 in assay [1] was 3100 nM; in assay [2], 155 nM; in assay [3], over 1000 nM; in assay [4], 3080 nM; in assay [5], 318 nM; in assay [6] it was 2460 nM.

Regarding `Fc1cc(F)cc(Cc2ccc3[nH]nc(/C=C/c4cccs4)c3c2)c1` [DYX-04, (E)-5-(3,5-difluorobenzyl)-3-(2-(thiophen-2-yl)vinyl)-1H-indazole], the IC50 in assay [1] is 240 nM; in assay [2] it was 5.1 nM; in assay [3] it was 32.4 nM; in assay [4] it was 174 nM; in assay [5] it was 21.8 nM; in assay [6], 728 nM.

Regarding `Fc1cc(F)cc(Oc2ccc3[nH]nc(/C=C/c4ccccn4)c3c2)c1` [DYX-101, (E)-5-(3,5-difluorophenoxy)-3-(2-(pyridin-2-yl)vinyl)-1H-indazole], the 50% inhibitory concentration (IC50) turned out to be 500 nM in assay [1]; 24.8 nM in assay [2]; 36.6 nM in assay [3]; 595 nM in assay [4]; 21.8 nM in assay [5]; 571 nM in assay [6].

On to `CN(Cc1ccc2[nH]nc(/C=C/c3ccccn3)c2c1)c1cc(F)cc(F)c1` [DYX-193, (E)-3,5-difluoro-N-methyl-N-((3-(2-(pyridin-2-yl)vinyl)-1H-indazol-5-yl)methyl)aniline], for which the IC50 in assay [1] is 83 nM; in assay [2] it was 33.2 nM; in assay [3], 120 nM; in assay [4] it was 136 nM; in assay [5] it was 45.4 nM; in assay [6] it was 316 nM.

In the case of `Fc1cccc(F)c1Cc1ccc2[nH]nc(/C=C/c3ccccn3)c2c1` [DYX-081, (E)-5-(2,6-difluorobenzyl)-3-(2-(pyridin-2-yl)vinyl)-1H-indazole], the half-inhibitory concentration (IC50) in assay [1] is 820 nM; in assay [2], 26.6 nM; in assay [3] it was 170 nM; in assay [4], 1440 nM; in assay [5], 39.8 nM; in assay [6], 1020 nM.

As to `Fc1cc(F)cc(Cc2ccc3[nH]nc(/C=C/c4ccc5ccccc5n4)c3c2)c1` [DYX-06, (E)-2-(2-(5-(3,5-difluorobenzyl)-1H-indazol-3-yl)vinyl)quinoline], the IC50 came out at 492 nM in assay [1]; 77.4 nM in assay [2]; 87.1 nM in assay [3]; 640 nM in assay [4]; 14.1 nM in assay [5]; 723 nM in assay [6].

For the compound `Fc1ccc(F)c(CNc2ccc3[nH]nc(/C=C/c4ccccn4)c3c2)c1` [DYX-216A, (E)-N-(2,5-difluorobenzyl)-3-(2-(pyridin-2-yl)vinyl)-1H-indazol-5-amine], the IC50 in assay [1] came to 7.2 nM; in assay [2] it was 1.3 nM; in assay [3] it was 6.5 nM; in assay [4], 12.6 nM; in assay [5] it was 1.1 nM; in assay [6], 8.7 nM.

Take `COc1cccc(Cc2ccc3[nH]nc(/C=C/c4ccccn4)c3c2)c1` [DYX-135X, (E)-5-(3-methoxybenzyl)-3-(2-(pyridin-2-yl)vinyl)-1H-indazole]: the IC50 stood at 2400 nM in assay [1]; 22.5 nM in assay [2]; 70.5 nM in assay [3]; 2990 nM in assay [4]; 49.4 nM in assay [5]; 2980 nM in assay [6].

As for `C(#Cc1n[nH]c2ccc(Cc3ccccc3)cc12)c1ccccn1` [DYX-014, 5-benzyl-3-(pyridin-2-ylethynyl)-1H-indazole], the IC50 in assay [1] was determined as 3030 nM; in assay [2] it was 95 nM; in assay [3] it was 321 nM; in assay [4], 8310 nM; in assay [5] it was 100 nM; in assay [6], 4700 nM.

On to `Fc1cccc(Cc2ccc3[nH]nc(/C=C/c4ccccn4)c3c2)c1` [DYX-038, (E)-5-(3-fluorobenzyl)-3-(2-(pyridin-2-yl)vinyl)-1H-indazole], for which the half-maximal inhibitory concentration (IC50) came to 133 nM in assay [1]; 1.9 nM in assay [2]; 32.4 nM in assay [3]; 239 nM in assay [4]; 9.3 nM in assay [5]; 335 nM in assay [6].

Take `Fc1cc(F)cc(OCc2ccc3[nH]nc(/C=C/c4ccccn4)c3c2)c1` [DYX-176]: the IC50 stood at 1040 nM in assay [1]; 6.5 nM in assay [2]; 21.4 nM in assay [3]; 627 nM in assay [4]; 7.1 nM in assay [5]; 2520 nM in assay [6].

As for `Fc1ccccc1Cc1ccc2[nH]nc(C#Cc3ccccn3)c2c1` [DYX-021, 5-(2-fluorobenzyl)-3-(pyridin-2-ylethynyl)-1H-indazole], the IC50 is 2600 nM in assay [1]; 79 nM in assay [2]; 360 nM in assay [3]; 4930 nM in assay [4]; 110 nM in assay [5]; 3090 nM in assay [6].

Regarding `COc1cccc(Cc2ccc3[nH]nc(C#Cc4ccccn4)c3c2)c1` [DYX-135Q, 5-(3-methoxybenzyl)-3-(pyridin-2-ylethynyl)-1H-indazole], the IC50 in assay [1] is over 10000 nM; in assay [2], 211 nM; in assay [3], 817 nM; in assay [4], over 10000 nM; in assay [5], 292 nM; in assay [6], over 10000 nM.

As to `Fc1ccc(Cc2ccc3[nH]nc(C#Cc4ccccn4)c3c2)cc1F` [DYX-044, 5-(3,4-difluorobenzyl)-3-(pyridin-2-ylethynyl)-1H-indazole], the half-inhibitory concentration (IC50) was over 10000 nM in assay [1]; 652 nM in assay [2]; over 1000 nM in assay [3]; over 10000 nM in assay [4]; 501 nM in assay [5]; over 10000 nM in assay [6].

In the case of `FC(F)(F)c1cccc(Cc2ccc3[nH]nc(/C=C/c4ccccn4)c3c2)c1` [DYX-138X, (E)-3-(2-(pyridin-2-yl)vinyl)-5-(3-(trifluoromethyl)benzyl)-1H-indazole], the IC50 in assay [1] is over 10000 nM; in assay [2], 262 nM; in assay [3] it was 356 nM; in assay [4], 6650 nM; in assay [5] it was 757 nM; in assay [6], 4080 nM.

`Fc1ccccc1Cc1ccc2[nH]nc(/C=C/c3ccccn3)c2c1` [DYX-032, (E)-5-(2-fluorobenzyl)-3-(2-(pyridin-2-yl)vinyl)-1H-indazole]: the IC50 in assay [1] came out at 718 nM; in assay [2], 12 nM; in assay [3], 56.1 nM; in assay [4], 1920 nM; in assay [5], 14.5 nM; in assay [6], 2340 nM.

In the case of `Fc1ccc(F)c(Cc2ccc3[nH]nc(C#Cc4ccccn4)c3c2)c1` [DYX-041, 5-(2,5-difluorobenzyl)-3-(pyridin-2-ylethynyl)-1H-indazole], the IC50 in assay [1] was determined as 796 nM; in assay [2] it was 8 nM; in assay [3], 40 nM; in assay [4] it was 724 nM; in assay [5] it was 44 nM; in assay [6], 1990 nM.

Consider `CN(c1cc(F)cc(F)c1)c1ccc2[nH]nc(C#Cc3ccccn3)c2c1` [DYX-130, N-(3,5-difluorophenyl)-N-methyl-3-(pyridin-2-ylethynyl)-1H-indazol-5-amine], for which the IC50 in assay [1] is 3090 nM; in assay [2], 235 nM; in assay [3], 993 nM; in assay [4], 3810 nM; in assay [5], 319 nM; in assay [6], 9840 nM.
